# Data from patent publication US6525001B1, “Substituted pyrimidine and pyridine herbicides” (Mid-American Commercialization Corporation, priority 1997, dated 2003).
# What was measured:
# Type in all cases: in vivo
# Parameters in all cases: key: 0 is no effect; 10 is complete control
# [1] = test system: giant foxtail (Setaria faberii); assay: Test B pre-/postemergence
# Outline: (§1)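 Scored visually 0 (none) to 10 (complete control) against untreated plants after twelve to sixteen greenhouse days. Test chemicals, formulated in surfactant-containing non-phytotoxic solvent, applied to soil after planting and, separately, onto 1- to 4-leaf (2–18 cm) plants.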
# [2] = test system: momingglory (Ipomoea hederacea); assay: Test B pre-/postemergence
# Outline: as §1
# [3] = test system: velvetleaf (Abutilon theophrasti); assay: Test B pre-/postemergence
# Outline: as §1
# [4] = test system: rape (Brassica napus); assay: Test B pre-/postemergence
# Outline: as §1
# [5] = test system: crabgrass (Digitaria sanguinalis); assay: Test B pre-/postemergence
# Outline: as §1
# [6] = test system: corn (Zea mays); assay: Test B pre-/postemergence
# Outline: as §1
# [7] = test system: blackgrass (Alopecurus myosuroides); assay: Test B pre-/postemergence
# Outline: as §1
# [8] = test system: cocklebur (Xanthium strumarium); assay: Test B pre-/postemergence; settings: for Plant response rating, Cocklebur: Postemergence; for Cocklebur plant response rating: Preemergence
# Outline: as §1
# [9] = test system: broadleaf signalgrass (Brachiaria decumbens); assay: Test B pre-/postemergence
# Outline: as §1
# [10] = test system: soybean (Glycine max); assay: Test B pre-/postemergence
# Outline: as §1
# [11] = test system: bedstraw (Galium aparine); assay: Test B pre-/postemergence
# Outline: as §1
# [12] = test system: purple nutsedge (Cyperus rotundus); assay: Test B pre-/postemergence
# Outline: as §1
# [13] = test system: wheat (Triticum aestivum); assay: Test B pre-/postemergence
# Outline: as §1
# [14] = test system: pigweed (Amaranthus retroflexus); assay: Test B pre-/postemergence
# Outline: as §1
# [15] = test system: sugar beet (Beta vulgaris); assay: Test B pre-/postemergence
# Outline: as §1
# [16] = test system: wild oat (Avena fatua); assay: Test B pre-/postemergence
# Outline: as §1
# [17] = test system: smallflower flatsedge (Cyperus difformis); assay: Test B flood test
# Outline: (§2)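 Flood test on plants grown to the 2-leaf stage; treated plants kept in greenhouse twelve to sixteen days, then visually rated against controls on a 0 (no effect) to 10 (complete control) scale.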
# [18] = test system: rice (Oryza sativa); assay: Test B flood test
# Outline: as §2
# [19] = test system: duck salad (Heteranthera limosa); assay: Test B flood test
# Outline: as §2
# [20] = test system: bamyardgrass (Echinochloa crus-galli); assay: Test B flood test
# Outline: as §2
# [21] = Rate 62 g/ha, Postemergence (flood test)
# [22] = Rate 125 g/ha, Postemergence, flood test
# [23] = Rate 250 g/ha, Postemergence (flood test species)
smiles,measurement,setting,value
COC(c1cccc(C(F)(F)F)c1)c1nc(-c2ccc(C(F)(F)F)cc2)ncc1C (racemic) [Compound 20],"Plant response rating, Giant foxtail","[1]; Rate 62 g/ha, Postemergence",2
same,Giant foxtail plant response rating,"[1]; Rate 62 g/ha, Preemergence",0
same,"Plant response rating, Giant foxtail","[1]; Rate 125 g/ha, Postemergence",2
same,Giant foxtail plant response rating,"[1]; Rate 125 g/ha, Preemergence",0
same,"Plant response rating, Giant foxtail","[1]; Rate 250 g/ha, Postemergence",3
same,"Plant response rating, Giant foxtail","[1]; Rate 250 g/ha, Preemergence",1
same,"Plant response rating, Morningglory","[2]; Rate 62 g/ha, Postemergence",3
same,Morningglory plant response rating,"[2]; Rate 62 g/ha, Preemergence",0
same,"Plant response rating, Morningglory","[2]; Rate 125 g/ha, Postemergence",4
same,Morningglory plant response rating,"[2]; Rate 125 g/ha, Preemergence",0
same,"Plant response rating, Morningglory","[2]; Rate 250 g/ha, Postemergence",4
same,"Plant response rating, Morningglory","[2]; Rate 250 g/ha, Preemergence",0
same,"Plant response rating, Velvetleaf","[3]; Rate 62 g/ha, Postemergence",4
same,Velvetleaf plant response rating,"[3]; Rate 62 g/ha, Preemergence",0
same,"Plant response rating, Velvetleaf","[3]; Rate 125 g/ha, Postemergence",6
same,Velvetleaf plant response rating,"[3]; Rate 125 g/ha, Preemergence",0
same,"Plant response rating, Velvetleaf","[3]; Rate 250 g/ha, Postemergence",7
same,"Plant response rating, Velvetleaf","[3]; Rate 250 g/ha, Preemergence",0
same,"Plant response rating, Rape","[4]; Rate 62 g/ha, Postemergence",3
same,Rape plant response rating,"[4]; Rate 62 g/ha, Preemergence",0
same,"Plant response rating, Rape","[4]; Rate 125 g/ha, Postemergence",4
same,Rape plant response rating,"[4]; Rate 125 g/ha, Preemergence",0
same,"Plant response rating, Rape","[4]; Rate 250 g/ha, Postemergence",5
same,"Plant response rating, Rape","[4]; Rate 250 g/ha, Preemergence",0
same,"Plant response rating, Crabgrass","[5]; Rate 62 g/ha, Postemergence",2
same,Crabgrass plant response rating,"[5]; Rate 62 g/ha, Preemergence",0
same,"Plant response rating, Crabgrass","[5]; Rate 125 g/ha, Postemergence",3
same,Crabgrass plant response rating,"[5]; Rate 125 g/ha, Preemergence",1
same,"Plant response rating, Crabgrass","[5]; Rate 250 g/ha, Postemergence",3
same,"Plant response rating, Crabgrass","[5]; Rate 250 g/ha, Preemergence",2
same,"Plant response rating, Corn","[6]; Rate 62 g/ha, Postemergence",3
same,Corn plant response rating,"[6]; Rate 62 g/ha, Preemergence",0
same,"Plant response rating, Corn","[6]; Rate 125 g/ha, Postemergence",3
same,Corn plant response rating,"[6]; Rate 125 g/ha, Preemergence",0
same,"Plant response rating, Corn","[6]; Rate 250 g/ha, Postemergence",3
same,"Plant response rating, Corn","[6]; Rate 250 g/ha, Preemergence",0
same,"Plant response rating, Blackgrass","[7]; Rate 62 g/ha, Postemergence",2
same,Blackgrass plant response rating,"[7]; Rate 62 g/ha, Preemergence",1
same,"Plant response rating, Blackgrass","[7]; Rate 125 g/ha, Postemergence",2
same,Blackgrass plant response rating,"[7]; Rate 125 g/ha, Preemergence",2
same,"Plant response rating, Blackgrass","[7]; Rate 250 g/ha, Postemergence",3
same,"Plant response rating, Blackgrass","[7]; Rate 250 g/ha, Preemergence",4
same,"Plant response rating, Cocklebur",[8]; Rate 62 g/ha,4
same,Cocklebur plant response rating,[8]; Rate 62 g/ha,0
same,"Plant response rating, Cocklebur",[8]; Rate 125 g/ha,5
same,Cocklebur plant response rating,[8]; Rate 125 g/ha,0
same,"Plant response rating, Cocklebur",[8]; Rate 250 g/ha,7
same,"Plant response rating, B. signalgrass","[9]; Rate 62 g/ha, Postemergence",2
same,B. signalgrass plant response rating,"[9]; Rate 62 g/ha, Preemergence",0
same,"Plant response rating, B. signalgrass","[9]; Rate 125 g/ha, Postemergence",2
same,B. signalgrass plant response rating,"[9]; Rate 125 g/ha, Preemergence",1
same,"Plant response rating, B. signalgrass","[9]; Rate 250 g/ha, Postemergence",3
same,"Plant response rating, B. signalgrass","[9]; Rate 250 g/ha, Preemergence",4
same,"Plant response rating, Soybean","[10]; Rate 62 g/ha, Postemergence",4
same,Soybean plant response rating,"[10]; Rate 62 g/ha, Preemergence",0
same,"Plant response rating, Soybean","[10]; Rate 125 g/ha, Postemergence",5
same,Soybean plant response rating,"[10]; Rate 125 g/ha, Preemergence",0
same,"Plant response rating, Soybean","[10]; Rate 250 g/ha, Postemergence",6
same,"Plant response rating, Soybean","[10]; Rate 250 g/ha, Preemergence",0
same,"Plant response rating, Bedstraw","[11]; Rate 62 g/ha, Postemergence",4
same,Bedstraw plant response rating,"[11]; Rate 62 g/ha, Preemergence",0
same,"Plant response rating, Bedstraw","[11]; Rate 125 g/ha, Postemergence",4
same,Bedstraw plant response rating,"[11]; Rate 125 g/ha, Preemergence",0
same,"Plant response rating, Bedstraw","[11]; Rate 250 g/ha, Postemergence",4
same,"Plant response rating, Bedstraw","[11]; Rate 250 g/ha, Preemergence",1
same,"Plant response rating, Nutsedge","[12]; Rate 62 g/ha, Postemergence",0
same,Nutsedge plant response rating,"[12]; Rate 62 g/ha, Preemergence",0
same,"Plant response rating, Nutsedge","[12]; Rate 125 g/ha, Postemergence",0
same,"Plant response rating, Nutsedge","[12]; Rate 250 g/ha, Postemergence",0
same,"Plant response rating, Nutsedge","[12]; Rate 250 g/ha, Preemergence",0
same,"Plant response rating, Wheat","[13]; Rate 62 g/ha, Postemergence",2
same,Wheat plant response rating,"[13]; Rate 62 g/ha, Preemergence",0
same,"Plant response rating, Wheat","[13]; Rate 125 g/ha, Postemergence",3
same,Wheat plant response rating,"[13]; Rate 125 g/ha, Preemergence",0
same,"Plant response rating, Wheat","[13]; Rate 250 g/ha, Postemergence",3
same,"Plant response rating, Wheat","[13]; Rate 250 g/ha, Preemergence",0
same,"Plant response rating, Redroot pigweed","[14]; Rate 62 g/ha, Postemergence",5
same,Redroot pigweed plant response rating,"[14]; Rate 62 g/ha, Preemergence",0
same,"Plant response rating, Redroot pigweed","[14]; Rate 125 g/ha, Postemergence",7
same,Redroot pigweed plant response rating,"[14]; Rate 125 g/ha, Preemergence",0
same,"Plant response rating, Redroot pigweed","[14]; Rate 250 g/ha, Postemergence",8
same,"Plant response rating, Redroot pigweed","[14]; Rate 250 g/ha, Preemergence",1
same,"Plant response rating, Sugarbeets","[15]; Rate 62 g/ha, Postemergence",3
same,Sugarbeets plant response rating,"[15]; Rate 62 g/ha, Preemergence",0
same,"Plant response rating, Sugarbeets","[15]; Rate 125 g/ha, Postemergence",5
same,Sugarbeets plant response rating,"[15]; Rate 125 g/ha, Preemergence",0
same,"Plant response rating, Sugarbeets","[15]; Rate 250 g/ha, Postemergence",7
same,"Plant response rating, Sugarbeets","[15]; Rate 250 g/ha, Preemergence",2
same,"Plant response rating, Wild oats","[16]; Rate 62 g/ha, Postemergence",2
same,Wild oats plant response rating,"[16]; Rate 62 g/ha, Preemergence",1
same,"Plant response rating, Wild oats","[16]; Rate 125 g/ha, Postemergence",3
same,Wild oats plant response rating,"[16]; Rate 125 g/ha, Preemergence",2
same,"Plant response rating, Wild oats","[16]; Rate 250 g/ha, Postemergence",3
same,"Plant response rating, Wild oats","[16]; Rate 250 g/ha, Preemergence",3
same,"Plant response rating, S. Flatsedge",[17]; [21],0
same,"Plant response rating, S. Flatsedge",[17]; [22],0
same,"Plant response rating, S. Flatsedge",[17]; [23],0
same,"Plant response rating, Rice",[18]; [21],0
same,"Plant response rating, Rice",[18]; [22],0
same,"Plant response rating, Rice",[18]; [23],0
same,"Plant response rating, Ducksalad",[19]; [21],0
same,"Plant response rating, Ducksalad",[19]; [22],0
same,"Plant response rating, Ducksalad",[19]; [23],0
same,"Plant response rating, Barnyardgrass",[20]; [21],0
same,"Plant response rating, Barnyardgrass",[20]; [22],0
same,"Plant response rating, Barnyardgrass",[20]; [23],0
